In patent US20250235499A1, “ANTI-OVARIAN CANCER PHARMACEUTICAL COMPOSITION AND ACTION TARGET THEREOF” (Zhejiang Chinese Medical University, priority 2024, published 2025):

Legend:
Hey ovarian cancer cells [1] = test: Cell cycle by flow cytometry (PI) with MCM2 knockdown or overexpression; format: cell-based, human
Procedure: (§1) SKOV3 and Hey ovarian cancer cells in logarithmic growth phase were knocked down with MCM2 (Control group, sh-NC group, sh-MCM2 group) and overexpressed with MCM2 (Control group, OE-NC group, OE-MCM2 group). The original culture medium was discarded, washed with PBS buffer, and digested with 0.1% trypsin. A corresponding culture medium was added to prepare a cell suspension. Cells were counted using a hemocytometer and a cell concentration was quantified at 5×10^4 cells/mL. 1500 μL of each well was inoculated into a 6 well plate, with 3 parallel wells in each group, and incubated in a 37° C. incubator containing 5% CO2 for 24 hours. After the cultivation time was over, the six well plate was taken out and aspirated the original culture medium from the wells for later use. The PBS buffer was added to gently wash the cells three times. 500 μL of 0.1% trypsin was added to each well to wait for the cells to be blown off with a pipette, then the original culture medium from the wells was added to terminate digestion. A pipette was used to gently blow off all the cells on the wall of the six well plate. The cell suspension was aspirated, transferred to a centrifuge tube, and centrifuged at 4° C. and 1000 rpm for 5 minutes. The supernatant was discarded, and 1 mL of pre-cooled PBS buffer was added to gently resuspend the cells, and transferred to a 1.5 mL sterile centrifuge tube. The mixture was centrifuged at 4° C. and 1000 rpm for 5 minutes, the supernatant was discarded, and the bottom of the centrifuge tube was gently tapped to disperse the cells. 1 mL of pre-cooled 70% ethanol was added, blown and mixed well to form a cell suspension, and placed in a refrigerator at 4° C. for 24 hours. After fixation, a water bath kettle was opened in advance, the temperature was set to 37° C., the centrifugation was performed for 5 minutes at 4° C. and 1000 rpm, and the supernatant was discarded. 1 mL of pre-cooled PBS buffer was added and gently resuspended to wash the cells. The mixture was centrifuged at 4° C. and 1000 rpm for 5 minutes, the supernatant was discarded, and the bottom of the centrifuge tube was gently tapped to disperse the cells. 500 μL of PI staining working solution containing RNase was added to each cell sample to be tested, and placed in a 37° C. dark water bath for 30 minutes. A flow cytometer was used to detect red fluorescence at an excitation wavelength of 488 nm, while also measuring light scattering. A modfit 3.2 version was used for cell DNA cycle analysis.

[2] = tested on: SKOV3 ovarian cancer cells; test: as above; format: cell-based, human
Procedure: as §1

[3] = tested on: MCM2, CDK4, Cyclin D1, P21; test: Western Blot of tumor body cyclin in tumor bearing nude mice; format: in vivo, BALB/c nude mice; details: nude mouse tumor body, compared to the Control group
Source text: The expression of nude mice tumor body cyclin and EMT related proteins in tumor bearing nude mice after intervention with DDP, CA, BDMC, and combined administration was shown in FIG. 29. In the figure, 1 represented the Control group; 2 represented the DDP group; 3 represented the CA group; 4 represented the BDMC group; and 5 represented the CA+BDMC group.

Hey ovarian cancer cells [4] = test: CCK-8 detection of proliferation of an ovarian cancer cell; format: cell-based, human; details: CA 50-800 μmol/L, BDMC 3.125-50 μmol/L, 24 and 48 hours, concentration- and time-dependent
Procedure: (§2) SKOV3 and Hey ovarian cancer cells in logarithmic growth phase were digested with 0.1% trypsin to prepare a cell suspension, and the cell concentration was quantified at 10^4 cells/mL. 200 μL of the cell suspension each well was inoculated into a 96 well plate, and 200 μL of PBS was added to each well of the outer circle to eliminate edge effects. The 96 well plate was placed in a 37° C. incubator containing 5% CO2 for 24 hours each. After the cells adhered to the wall, the culture medium was discarded, and the cells were washed three times with PBS buffer. New culture medium containing different concentrations of CA (0, 50, 100, 200, 400, and 800 μmol/L) and BDMC ([…]) were added, with 6 parallel wells in each group. After adding a pharmaceutical, cultivation was further conducted, the 96 well plate was taken out at 24 hours and 48 hours, the original culture medium was discarded, the cells were washed three times with PBS, 200 μL of prepared serum-free culture medium containing 10% CCK-8 was added, and incubated at 37° C. for 1 hour. A well with drug concentration of 0 μmol/L was used as a control well and a well without cells and only added with a CCK-8 solution as a blank well. An absorbance at a wavelength of 450 nm was measured using a microplate reader, and an IC50 value was calculated using GraphPad Prism 8 software. […]

[5] = tested on: SKOV3 ovarian cancer cells; test: as above; format: cell-based, human; details: CA 50-800 μmol/L, BDMC 3.125-50 μmol/L, 24 and 48 hours, concentration- and time-dependent
Procedure: as §2

COc1ccc(-c2coc3cc(O)ccc3c2=O)cc1O [CA, calycosin]
percentage of G0/G1 phase cells (Hey ovarian cancer cells [1]; Hey OE-MCM2 cells (MCM2 overexpression), vs OE-MCM2 group): no significant change
percentage of G0/G1 phase cells (Hey ovarian cancer cells [1]; Hey OE-NC cells (empty vector), vs OE-NC group): significantly increased
percentage of G0/G1 phase cells (Hey ovarian cancer cells [1]; Hey sh-MCM2 cells (MCM2 knockdown), vs sh-MCM2 group): no significant change
percentage of G0/G1 phase cells (Hey ovarian cancer cells [1]; Hey sh-NC cells (empty vector), vs sh-NC group): significantly increased
percentage of G0/G1 phase cells ([2]; SKOV3 OE-MCM2 cells (MCM2 overexpression), vs OE-MCM2 group): no significant change
percentage of G0/G1 phase cells ([2]; SKOV3 OE-NC cells (empty vector), vs OE-NC group): significantly increased
percentage of G0/G1 phase cells ([2]; SKOV3 sh-MCM2 cells (MCM2 knockdown), vs sh-MCM2 group): no significant change
percentage of G0/G1 phase cells ([2]; SKOV3 sh-NC cells (empty vector), vs sh-NC group): significantly increased
expression of CDK4 protein (Western Blot) [3]: significantly decreased
expression of Cyclin D1 protein (Western Blot) [3]: significantly decreased
expression of MCM2 protein (Western Blot) [3]: significantly decreased
expression of P21 protein (Western Blot) [3]: significantly increased
effect on proliferation (Hey ovarian cancer cells [4]): proliferative inhibitory effects
effect on proliferation [5]: proliferative inhibitory effects
